Patent publication US7569554B2, “Synergistic treatment of cancer using immunomers in conjunction with therapeutic agents” (Idera Pharmaceuticals, Inc., priority 2003, dated 2009)

Experiments:
BALB/c mice = experiment: In vivo serum cytokine induction; set-up: species or system mouse
Protocol: To assess serum cytokine levels, BALB/c mice (n=5) were injected intraperitoneally (i.p), subcutaneously (s.c) or intramuscularly (i.m) with IMO compounds at 10 mg/kg (single dose). Sera was collected by retro-orbital bleeding at 4 hrs of IMO administration and determined IL-112 and IL-6 by sandwich ELISA. Cytokine antibodies and standards were purchased from PharMingen (San Diego, Calif.).
To evaluate the immunopharmacological effects in vivo, IMO compounds, CpG immunomers, and non-CpG oligos were administered to BALB/c mice i.p, s.c or i.m at a dose of 10 mg/kg and their serum was evaluated for IL-12 and IL-6 after 4 hrs.

[1] = In vitro cytokine induction profiles of IMO compounds (FIG. 16); assay type: cell-based
CT26.CL25 colon tumor = experiment: Subcutaneous CT26.CL25 colon tumor in BALB/c mice; assay type: in vivo, mouse; settings: day 24, compared with non-CpG DNA treated mice; 1 mg/kg peritumoral
Protocol: (§1) For subcutaneous solid tumor models, 10^6 CT26.CL25 cells/mouse or 5×10^5 B16.F0 cells/mouse in 100 μl of PBS were implanted into BALB/c or C57BL/6 mice in the lower right flank. The tumor size reached to 50 to 200 mg on day 6 for CT26.CL25 and on day 8 for B16.F0 post tumor inoculation. The tumor bearing mice were then treated with peritumoral injection of IMO compounds or non-CpG DNA control at a dose of 1 mg/kg every other day for 10 times. Tumor growth was recorded with the use of calipers, by measuring the long and short diameters of the tumor. Tumor volumes were measured with a caliper and the formula (0.5×length×width^2) was applied to determine tumor growth kinetics.
The antitumor activity of IMO compounds in a murine colon carcinoma CT26.CL25 model was evaluated. BALB/c mice bearing CT26.CL25 subcutaneous solid tumors were treated with 1 mg/kg IMO compounds by peritumoral administration every other day for 10 times starting on day 6 following tumor inoculation.

CT26.WT = experiment: Peritoneal disseminated CT26.WT tumor, survival; assay type: in vivo, mouse; settings: peritoneal administration, 1 mg/kg; FIG. 17B
Protocol: (§2) For peritoneal disseminated tumor model, 3×10^5 CT26.WT or CT26.CL25 cells and 5×10^4 B16.F0 cells were injected i.p to BALB/c or C57BL/6 mice respectively. […] Mice were checked daily for tumor growth and for survival. Each dose group had 6 to 10 mice.

CT26.CL25 = experiment: Peritoneal disseminated CT26.CL25 tumor, survival; assay type: in vivo, mouse; settings: peritoneal administration, 1 mg/kg; FIG. 17C
Protocol: as §2

[2] = tested on: CT26.WT and CT26.CL25 tumors; experiment: Rechallenge of long term survivors with CT26.WT or CT26.CL25; assay type: in vivo, mouse
Description: (§3) Long term survivors (n=5) of IMO compound treated mice with CT26.WT or CT26.CL25 peritoneal tumor were rechallenged i.p. or i.v. with 5×10^5 of the parental tumor cells without any further treatment. To evaluate the specificity of the IMO induced antitumor response in tumor bearing mice, these long term survivors (n=5) were also rechallenged with syngeneic, non-organ-related mammary tumor 4T1 (5×10^5). For i.v. rechallenged groups, mice were sacrificed on day 13, lungs were harvested and lung metastases were counted.

4T1 mammary carcinoma = experiment: Rechallenge of long term survivors with 4T1; assay type: in vivo, mouse; settings: FIG. 20C
Description: as §3

CT26.CL25 tumor cells = experiment: Adoptive transfer of splenocytes, CT26.CL25 challenge; assay type: in vivo, mouse; settings: FIG. 21A
Description: (§4) To study adoptive immune cell transfer, BALB/c mice were adoptively i.p. transferred with 5×10^6 of syngeneic splenocytes either from naïve BALB/c mice or from IMO treated long term survivors bearing CT26.WT or CT26.CL25, the mice (5/group) were then cross challenged i.p. with 3×10^5 CT26.WT, CT26.CL25 or 4T1 cells on day 3.

4T1 tumor cells = experiment: Adoptive transfer of splenocytes, 4T1 challenge; assay type: in vivo, mouse; settings: FIG. 21B
Description: as §4

B16.F0 melanoma [3] = experiment: Subcutaneous B16.F0 melanoma in C57BL/6 mice; assay type: in vivo, mouse; settings: 1 mg/kg peritumoral every other day for 10 times from day 8; FIG. 22A
Protocol: as §1
IMO 2 was further tested for its antitumor activity in mice bearing B 16.F0 murine melanoma. C57BL/6 mice bearing B16.F0 melanoma were treated with 1 mg/kg IMO 2 by peritumoral administration every other day for 10 times starting on day 8 following tumor inoculation.

[4] = Total serum IgG1 and IgG2a in B16.F0 tumor bearing C57BL/6 mice; assay type: in vivo, mouse; settings: compared with control non-CpG DNA
Protocol: For the analysis of serum antibodies, 96 well plates were incubated at room temperature for 3 hours with β-gal protein (Calbiochem Novabiochem, Pasadena, Calif.) at 2 μg/ml in phosphate buffered saline (PBS). The solid phase was incubated overnight at 4° C. with normal mouse serum (NMS) or antiserum, or β-gal specific monoclonal Ab (Calbiochem Novabiochem, Pasadena, Calif.) followed by an incubation with horseradish peroxidase (HRP)-conjugated antibodies specific for mouse IgG (H+L). For isotype analysis, HRP-labelled goat anti-mouse IgG1 and IgG2a (Southern Biotechnology, Birmingham, Ala.) were used. The binding of antibodies was measured as absorbance at 405 nm after reaction of the immune complexes with ABTS substrate (Zymed, San Francisco, Calif.).

B16.F0 melanoma [5] = experiment: B16.F0 melanoma in wt, IL-6 ko and IL-12 ko C57BL/6 mice; assay type: in vivo, mouse; settings: FIG. 23
Description: Female BALB/c (H-2^d), C57BL/6, and IL-6 and IL-12 knockout (ko) (both ko on a C57BL/6 background) mice 5-8 weeks of age, were purchased from Jackson Laboratory (Bar Harbor, Me.). CT26.WT (ATCC, Rockville, Md.) is a carcinogen-induced BALB/c undifferentiated colon carcinoma. CT26.CL25 (ATCC, Rockville, Md.) is a subclone of CT26.WT that has been transduced with Escherichia coli β-gal gene. 4T1 is a mammary adenocarcinoma cell line in BALB/c mice. B16.F0 is a C57BL/6 derived melanoma (ATCC). CT26.WT and 4T1 cells were cultured in RPMI 1640, 10% heat-inactivated fetal bovine serum (FBS, Atlas Biologicals, Fort Colins, Colo.), 2 mM L-glutamine, 100 μg/ml streptomycin, 100 U/ml penicillin (Mediatech, Va.). CT26.CL25 is maintained in the same medium plus 400 μg/ml G418 sulfate (Life Technologies, Grand Island, N.Y.). B 16.F0 cells were grown in DMEM containing 10% FBS and antibiotics.
For peritoneal disseminated tumor model, 3×10^5 CT26.WT or CT26.CL25 cells and 5×10^4 B16.F0 cells were injected i.p to BALB/c or C57BL/6 mice respectively. IMO compounds or non-CpG DNA (2.5 mg/kg) were administrated i.p. twice per week starting on day 1 for a total of 5 times. Mice were checked daily for tumor growth and for survival. Each dose group had 6 to 10 mice.

4T1 breast tumor = 4T1 breast tumor in BALB/c mice, combination with doxorubicin; assay type: in vivo, mouse; settings: IMO 2 1 mg/kg peritumoral, doxorubicin 30 mg/kg i.p; FIG. 24A
Protocol: For the 4T1 tumor models, 5×10^5 cells/mouse in. 100 μl PBS were implanted into BALB/c mice in the lower right flank. On day 5 when the average tumor size reached 50 mm^2, the mice were given i.p injections of 30 mg/kg doxorubicin (Bedford lab, Bedford, Ohio) for three times on days 5, 6 and 7. IMO 2 (1 mg/kg) dissolved in 100 μl PBS was administrated by peritumoral injection at twice a week interval for a total of six times.

CD69+ and CD86+ cells = experiment: Activation of CD69+ and CD86+ cells in peripheral blood; assay type: in vivo, mouse; settings: docetaxel 30 mg/kg days 1 and 3, IMO 2 5 mg/kg days 1, 3, 5, 7; FIG. 24C
[6] = tested on: Her-2 overexpressing human breast tumors (BT474); experiment: Her-2 overexpressing human breast tumors (BT474) in nude mice, combination with Herceptin; assay type: in vivo, mouse; settings: compared to the PBS control group; Herceptin 10 mg/kg i.p, IMO 1 mg/kg peritumoral, twice a week for 6 weeks; FIG. 29
[7] = tested on: Her-2 overexpressing human breast tumors (BT474); experiment: Example 23 tumor model, Rituxan and/or IMO 2; assay type: in vivo, mouse; settings: Rituxan days 5, 7, 9, 11; IMO 2 days 5, 7, 9, 11, 13; FIG. 30
Protocol: Nude mice bearing subcutaneously implanted Her-2 overexpressing human breast tumors (BT474). Tumor bearing mice were treated by intraperitoneal injections of Rituxan on days 5, 7, 9 and 11 and/or IMO 2 on days 5, 7, 9, 11 and 13.

[8] = Intramuscular (i.m), 10 mg/kg, 4 hrs
[9] = Intraperitoneal (i.p), 10 mg/kg, 4 hrs
[10] = Subcutaneous (s.c), 10 mg/kg, 4 hrs

Substance: IMO 2: IMO compound of FIG. 15 (SEQ ID NO 24) containing a synthetic CpR motif, mouse-specific immunostimulatory motif (DNA TCTGACNTTCT; synthetic CpR motif, chemistry not fully specified)
- Serum IL-6 induction (BALB/c mice; 10 mg/kg, all three routes of administration, 4 hrs): significantly lower serum IL-6
- Serum IL-12 secretion in mice (BALB/c mice; 4 hr after administration, FIG. 25B): induced IL-12 secretion
- IL-6 (serum) (BALB/c mice; [8]): 1.2 ± 0.1 ng/mL
- IL-12 (serum) (BALB/c mice; [8]): 87.9 ± 3.2 ng/mL
- IL-6 (serum) (BALB/c mice; [9]): 2.5 ± 0.2 ng/mL
- IL-12 (serum) (BALB/c mice; [9]): 51.7 ± 0.9 ng/mL
- IL-6 (serum) (BALB/c mice; [10]): 2.3 ± 0.4 ng/mL
- IL-12 (serum) (BALB/c mice; [10]): 136.9 ± 17 ng/mL
- IL-6 production in vitro [1]: lower IL-6 production
- IL-12 secretion in vitro [1]: strong IL-12 secretion
- Average tumor growth inhibition (CT26.CL25 colon tumor): 85%
- Mice survival (CT26.WT): marked increase of mice survival
- Mice survival (CT26.CL25): marked increase of mice survival
- Rejection of pulmonary metastases after i.v. inoculation ([2]; data not shown): able to reject pulmonary metastases of the same tumor
- Protection against i.p rechallenge ([2]; mice cleared of CT26.CL25 peritoneal tumor, FIGS. 20A and B): rejected i.p rechallenge with CT26.WT and CT26.CL25 tumors
- Protection against 4T1 mammary carcinoma challenge (4T1 mammary carcinoma): not protected
- Protection by transferred splenocytes against CT26.CL25 challenge (CT26.CL25 tumor cells): protective against a lethal tumor challenge
- Protection by transferred splenocytes against 4T1 challenge (4T1 tumor cells): did not extend to 4T1 tumor cell challenge
- Tumor growth inhibition (B16.F0 melanoma [3]): 71%
- Total IgG1 levels ([4]; FIG. 22B): decrease or no change
- Total circulating serum IgG2a ([4]; FIG. 22C): significant increase
- Tumor growth (B16.F0 melanoma [5]; IL-6 ko C57BL/6 mice): significant reduction in tumor growth
- Tumor growth (B16.F0 melanoma [5]; wt C57BL/6 mice): significant reduction in tumor growth
- Inhibition of 4T1 tumor growth (4T1 breast tumor): strong inhibition
- Percentage of CD69+ and CD86+ cells (CD69+ and CD86+ cells): significant increase in the percentage of CD69+ and CD86+cells
- Tumor growth inhibition [6]: 65%
- Tumor growth [7]: significantly inhibited
